Laboratory results as given in patent USRE40086E1, “Method for treating bacterial infection with novel 7-substituted-9-substituted amino 6-demethyl-6-deoxytetracyclines” (Wyeth Holdings Corporation, priority 1991, dated 2008).

Columns and labels:
[1] = test system: E. coli J3272 Tet sens.; test: MIC, agar dilution (Table IA); format: cell-based; details: unit assumed
[2] = test system: E. coli MC4100 TetB; test: MIC, agar dilution (Table IA); format: cell-based; details: unit assumed
[3] = test system: E. faecalis ATCC 29212; test: MIC, agar dilution; format: cell-based; details: E. faecalis ATCC 29212; Table IA; unit assumed
[4] = test system: E. coli ATCC 25922; test: MIC, agar dilution; format: cell-based; details: E. coli ATCC 25922; Table IA; unit assumed
[5] = test system: E. coli UBMS 89-1 (tetM); test: MIC, agar dilution; format: cell-based; details: E. coli UBMS 89-1 TetM; Table IA; unit assumed
[6] = test system: S. aureus UBMS 90-2 (tetM); test: MIC, agar dilution; format: cell-based; details: S. aureus UBMS 90-2 TetM; Table IA; unit assumed
[7] = test system: E. coli UBMS 88-1 (tetB); test: MIC, agar dilution; format: cell-based; details: E. coli UBMS 88-1 TetB; Table IA; unit assumed
[8] = test system: S. aureus ROSE (MP); test: MIC, agar dilution (Table IA); format: cell-based; details: unit assumed
[9] = test system: S. aureus UBMS 90-1 (tetM); test: MIC, agar dilution; format: cell-based; details: S. aureus UBMS 90-1 TetM; Table IA; unit assumed
[10] = test system: S. aureus ATCC 29213 (Sensitive); test: MIC, agar dilution; format: cell-based; details: S. aureus ATCC 29213; Table IA; unit assumed
[11] = test system: E. coli UBMS 89-2 (Sensitive); test: MIC, agar dilution; format: cell-based; details: E. coli UBMS 89-2 Tet Sens.; Table IA; unit assumed
[12] = test system: E. coli #311 (MP); test: MIC, agar dilution (Table IA); format: cell-based; details: unit assumed
[13] = test system: S. aureus SMITH (sens); test: In vivo antibacterial evaluation, acute lethal infection in mice; details: Intraveneous
[14] = test system: E. coli BAJ9003; test: MIC, agar dilution (Table IA); format: cell-based; details: unit assumed
[15] = test system: E. coli J3272 TetC; test: MIC, agar dilution (Table IA); format: cell-based; details: unit assumed
[16] = test system: S. mariescens FDOR 8733; test: MIC, agar dilution (Table IA); format: cell-based; details: unit assumed
[17] = test system: E. coli PRP1 TetA; test: MIC, agar dilution (Table IA); format: cell-based; details: unit assumed
[18] = test system: S. aureus Smith (Sensitive); test: MIC, agar dilution; format: cell-based; details: S. aureus SMITH (MP); Table IA; unit assumed
[19] = test system: S. aureus UBMS 88-4 (Sensitive); test: MIC, agar dilution; format: cell-based; details: S. aureus UBMS 88-4; Table IA; unit assumed
[20] = test system: E. coli J3272 TetD; test: MIC, agar dilution (Table IA); format: cell-based; details: unit assumed
[21] = test system: Wild Type S30 extract, E. coli strain MRE600 (tetracycline sensitive); test: E. coli in vitro transcription and protein translation, 35S-methionine incorporation (Table VIII)
[22] = test system: S. aureus UBMS 88-7 (tetK); test: MIC, agar dilution; format: cell-based; details: S. aureus UBMS 88-7 TetK; Table IA; unit assumed
[23] = test system: S. aureus UBMS 88-5 (tetM); test: MIC, agar dilution; format: cell-based; details: S. aureus UBMS 88-5 TetM; Table IA; unit assumed
[24] = test system: TetM S30 extract, derivative of E. coli MRE600 containing the tetM determinant; test: E. coli in vitro transcription and protein translation, 35S-methionine incorporation (Table VIII)
[25] = test system: S. aureus NEMC 8769/89-4; test: MIC, agar dilution (Table IA); format: cell-based; details: unit assumed
[26] = test system: Ps. acruginosa ATCC 27853; test: MIC, agar dilution (Table IA); format: cell-based; details: unit assumed
[27] = test system: X. maltophilia NEMC 87210; test: MIC, agar dilution (Table IA); format: cell-based; details: unit assumed
[28] = test system: E. coli J2175; test: MIC, agar dilution (Table IA); format: cell-based; details: unit assumed
[29] = test system: S. aureus IVES 1983 (meth. resistant); test: MIC, agar dilution; format: cell-based; details: S. aureus IVES 1983; Table IA; unit assumed
[30] = test system: E. coli UBMS 90-4 (tetM); test: MIC, agar dilution; format: cell-based; details: E. coli UBMS 90-4 TetM; Table IA; unit assumed
[31] = test system: S. haemolyticus AVAH 88-3; test: MIC, agar dilution; format: cell-based; details: S. hemolyticus AVHAH 88-3; Table IA; unit assumed
[32] = test system: S. aureus SMITH (sens); test: In vivo antibacterial evaluation, acute lethal infection in mice
Description: In Vivo Antibacterial Evaluation (Table VII)

[33] = test system: S. aureus IVES 2943 (meth. resistant); test: MIC, agar dilution; format: cell-based; details: S. aureus IVES 2943; Table IA; unit assumed
[34] = test system: S. aureus UBMS 90-3 (Sensitive); test: MIC, agar dilution; format: cell-based; details: S. aureus UBMS 90-3; Table IA; unit assumed
[35] = test system: E. coli UBMS 90-5; test: MIC, agar dilution (Table IA); format: cell-based; details: unit assumed
[36] = test system: E. faecalis 12201; test: MIC, agar dilution; format: cell-based; details: Enterococcus 12201; Table IA; unit assumed

Row | Structure (SMILES) | Antibacterial activity (MIC) [1] [µg/mL] | Antibacterial activity (MIC) [2] [µg/mL] | Antibacterial activity (MIC) [3] [µg/mL] | Antibacterial activity (MIC) [4] [µg/mL] | Antibacterial activity (MIC) [5] [µg/mL] | Antibacterial activity (MIC) [6] [µg/mL] | Antibacterial activity (MIC) [7] [µg/mL] | Antibacterial activity (MIC) [8] [µg/mL] | Antibacterial activity (MIC) [9] [µg/mL] | Antibacterial activity (MIC) [10] [µg/mL] | Antibacterial activity (MIC) [11] [µg/mL] | Antibacterial activity (MIC) [12] [µg/mL] | ED50 [13] [mg/kg] | Antibacterial activity (MIC) [14] [µg/mL] | Antibacterial activity (MIC) [15] [µg/mL] | Antibacterial activity (MIC) [16] [µg/mL] | Antibacterial activity (MIC) [17] [µg/mL] | Antibacterial activity (MIC) [18] [µg/mL] | Antibacterial activity (MIC) [19] [µg/mL] | Antibacterial activity (MIC) [20] [µg/mL] | other results
1 | CC(C(=O)Nc1cc(N(C)C)c2c(c1O)C(=O)C1=C(O)[C@]3(O)C(=O)C(C(N)=O)=C(O)[C@@H](N(C)C)C3CC1C2)N(C)C.Cl.Cl (some centres unmarked) [XX] | 0.5 | 1 | 0.12 | 0.5 | 0.12 | 0.25 | 0.5 | 1 | 0.25 | 0.25 | 0.5 | 0.5 | 0.5 to 1 | 0.06 | 1 | 4 | 1 | 0.25 | 0.25 | 0.25 | % INHIBITION Wild Type S30 ([21]; 0.06 mg/ml): 85%; % INHIBITION Wild Type S30 ([21]; 0.2 mg/ml): 96%; % INHIBITION Wild Type S30 ([21]; 1.0 mg/ml): 98%; Antibacterial activity (MIC) [22]: 1 µg/mL; Antibacterial activity (MIC) [23]: 0.25 µg/mL; % INHIBITION TetM S30 ([24]; 0.06 mg/ml): 78%; % INHIBITION TetM S30 ([24]; 0.2 mg/ml): 89%; % INHIBITION TetM S30 ([24]; 1.0 mg/ml): 97%; Antibacterial activity (MIC) [25]: 0.12 µg/mL; Antibacterial activity (MIC) [26]: 32 µg/mL; Antibacterial activity (MIC) [27]: 0.5 µg/mL; Antibacterial activity (MIC) [28]: 0.5 µg/mL; Antibacterial activity (MIC) [29]: 1 µg/mL; Antibacterial activity (MIC) [30]: 0.5 µg/mL; Antibacterial activity (MIC) [31]: 0.5 µg/mL; ED50 ([32]; Oral): 8 to 16 mg/kg; Antibacterial activity (MIC) [33]: 1 µg/mL; Antibacterial activity (MIC) [34]: 0.25 µg/mL; Antibacterial activity (MIC) [35]: 0.5 µg/mL; Antibacterial activity (MIC) [36]: 0.12 µg/mL
2 | CCCNCC(=O)Nc1cc(N(C)C)c2c(c1O)C(=O)C1=C(O)C3(O)C(=O)C(C(N)=O)=C(O)C(N(C)C)C3CC1C2.Cl.Cl (stereo not drawn) [WW, [4S-(4alpha,12aalpha)]-4,7-bis(dimethylamino)-1,4,4a,5,5a,6,11,12a-octahydro-3,10,12,12a-tetra-hydroxy-1,11-dioxo-9-[[(propylamino)acetyl]amino]-2-naphthacenecarboxamide dihydrochloride] | 0.25 | 0.25 | 0.25 | 0.25 | 0.25 | 0.25 | 0.25 | 2 | 0.12 | 0.25 | 0.25 | 0.25 | 0.82 | 0.06 | 0.25 | 2 | 1 | 0.12 | 0.25 | 0.12 | % INHIBITION Wild Type S30 ([21]; 0.06 mg/ml): 93%; % INHIBITION Wild Type S30 ([21]; 0.2 mg/ml): 99%; % INHIBITION Wild Type S30 ([21]; 1.0 mg/ml): 99%; Antibacterial activity (MIC) [22]: 1 µg/mL; Antibacterial activity (MIC) [23]: 0.25 µg/mL; % INHIBITION TetM S30 ([24]; 0.06 mg/ml): 88%; % INHIBITION TetM S30 ([24]; 0.2 mg/ml): 97%; % INHIBITION TetM S30 ([24]; 1.0 mg/ml): 98%; Antibacterial activity (MIC) [25]: 0.06 µg/mL; Antibacterial activity (MIC) [26]: 8 µg/mL; Antibacterial activity (MIC) [27]: 0.5 µg/mL; Antibacterial activity (MIC) [28]: 0.25 µg/mL; Antibacterial activity (MIC) [29]: 2 µg/mL; Antibacterial activity (MIC) [30]: 0.25 µg/mL; Antibacterial activity (MIC) [31]: 0.25 µg/mL; ED50 ([32]; Oral): >16 mg/kg; Antibacterial activity (MIC) [33]: 2 µg/mL; Antibacterial activity (MIC) [34]: 0.12 µg/mL; Antibacterial activity (MIC) [35]: 0.25 µg/mL; Antibacterial activity (MIC) [36]: 0.12 µg/mL
3 | CC(C)CNCC(=O)Nc1cc(N(C)C)c2c(c1O)C(=O)C1=C(O)C3(O)C(=O)C(C(N)=O)=C(O)C(N(C)C)C3CC1C2.Cl.Cl (stereo not drawn) [TT, [4S-(4alpha,12aalpha)]-4,7-Bis(dimethylamino)-1,4,4a,5,5a,6,11,12a-octahydro-3,10,12,12a-tetrahydroxy-9-[[[(2-methylpropyl)amino]acetyl]amino)-1,11-dioxo-2-naphthacenecarboxamide dihydrochloride] | 0.5 | 0.5 | 0.25 | 0.5 | 0.25 | 0.25 | 0.5 | 2 | 0.25 | 0.25 | 0.5 | 0.5 | 1 to 2 | 0.06 | 0.5 | 4 | 2 | 0.12 | 0.25 | 0.12 | Antibacterial activity (MIC) [22]: 2 µg/mL; Antibacterial activity (MIC) [23]: 0.25 µg/mL; Antibacterial activity (MIC) [25]: 0.03 µg/mL; Antibacterial activity (MIC) [26]: 16 µg/mL; Antibacterial activity (MIC) [27]: 0.5 µg/mL; Antibacterial activity (MIC) [28]: 0.5 µg/mL; Antibacterial activity (MIC) [29]: 2 µg/mL; Antibacterial activity (MIC) [30]: 0.5 µg/mL; Antibacterial activity (MIC) [31]: 0.5 µg/mL; ED50 ([32]; Oral): 8 to 16 mg/kg; Antibacterial activity (MIC) [33]: 2 µg/mL; Antibacterial activity (MIC) [34]: 0.12 µg/mL; Antibacterial activity (MIC) [35]: 0.5 µg/mL; Antibacterial activity (MIC) [36]: 0.25 µg/mL
4 | CN(C)CC(=O)Nc1cc(N(C)C)c2c(c1O)C(=O)C1=C(O)C3(O)C(=O)C(C(N)=O)=C(O)C(N(C)C)C3CC1C2.O=S(=O)(O)O.O=S(=O)(O)O (stereo not drawn) [JJ, [4S-(4alpha,12aalpha))-4,7-Bis(dimethylamino)-9-([(dimethylamino)acetyl)amino]-1,4,4a,5,5a,6,11,12a-octahydro-3,10,12,12a-tetrahydroxy-1,11-dioxo-2-naphthacenecarboxamide disulfate] | 0.25 | 0.25 | 0.12 | 0.25 | 0.25 | 0.25 | 0.25 | 2 | 0.25 | 0.03 | 0.25 | 0.25 | 0.61 | 0.03 | 1 | 4 | 2 | 0.12 | 0.25 | 0.12 | Antibacterial activity (MIC) [22]: 1 µg/mL; Antibacterial activity (MIC) [23]: 0.25 µg/mL; Antibacterial activity (MIC) [25]: 0.06 µg/mL; Antibacterial activity (MIC) [26]: 8 µg/mL; Antibacterial activity (MIC) [27]: 0.5 µg/mL; Antibacterial activity (MIC) [28]: 0.25 µg/mL; Antibacterial activity (MIC) [29]: 2 µg/mL; Antibacterial activity (MIC) [30]: 0.25 µg/mL; Antibacterial activity (MIC) [31]: 0.25 µg/mL; ED50 ([32]; Oral): 9.6 mg/kg; ED50 ([32]; Subcutaneous): 0.66 mg/kg; Antibacterial activity (MIC) [33]: 2 µg/mL; Antibacterial activity (MIC) [34]: 0.12 µg/mL; Antibacterial activity (MIC) [35]: 0.25 µg/mL; Antibacterial activity (MIC) [36]: 0.12 µg/mL
